Laboratory results taken from the NIST ThermoML archive (doi:10.1021/je060406c).
Values joined by “and” are separate entries in the source; they are usually repeats but may differ in a detail not shown here. Identical values can stand only once. Numbers after ± are expanded uncertainties.

Details: Liquid, Transpiration method

Compound: O=Cc1ccco1 [2-furaldehyde]
- vapor or sublimation pressure (276.7 K): 0.0525 ± 0.003 kPa
- vapor or sublimation pressure (281.5 K): 0.0746 ± 0.0041 kPa
- vapor or sublimation pressure (285.4 K): 0.1011 ± 0.0056 kPa
- vapor or sublimation pressure (288.4 K): 0.1293 ± 0.0072 kPa
- vapor or sublimation pressure (290.6 K): 0.1516 ± 0.0084 kPa
- vapor or sublimation pressure (293.2 K): 0.182 ± 0.01 kPa
- vapor or sublimation pressure (295.5 K): 0.2088 ± 0.012 kPa
- vapor or sublimation pressure (298.2 K): 0.2589 ± 0.014 kPa
- vapor or sublimation pressure (300.5 K): 0.3002 ± 0.017 kPa
- vapor or sublimation pressure (303.1 K): 0.3652 ± 0.02 kPa
- vapor or sublimation pressure (308.2 K): 0.4911 ± 0.027 kPa
- vapor or sublimation pressure (312.2 K): 0.6213 ± 0.034 kPa
- vapor or sublimation pressure (315.1 K): 0.7411 ± 0.041 kPa
- vapor or sublimation pressure (317.9 K): 0.9108 ± 0.05 kPa
- vapor or sublimation pressure (320.1 K): 1.04 ± 0.057 kPa
- vapor or sublimation pressure (323.4 K): 1.256 ± 0.068 kPa

Compound: OCCc1ccccc1 [2-phenylethanol]
- vapor or sublimation pressure (287.8 K): 0.00251 ± 0.00014 kPa
- vapor or sublimation pressure (289.7 K): 0.00285 ± 0.00016 kPa
- vapor or sublimation pressure (292.7 K): 0.00399 ± 0.00023 kPa
- vapor or sublimation pressure (295.1 K): 0.00482 ± 0.00027 kPa
- vapor or sublimation pressure (297.5 K): 0.00626 ± 0.00036 kPa
- vapor or sublimation pressure (302.5 K): 0.00976 ± 0.00055 kPa
- vapor or sublimation pressure (308.2 K): 0.0153 ± 0.00086 kPa
- vapor or sublimation pressure (312.5 K): 0.02276 ± 0.0013 kPa
- vapor or sublimation pressure (316.6 K): 0.03091 ± 0.0017 kPa
- vapor or sublimation pressure (317.6 K): 0.03285 ± 0.0018 kPa
- vapor or sublimation pressure (322.7 K): 0.05022 ± 0.0028 kPa and 0.05028 ± 0.0028 kPa
- vapor or sublimation pressure (322.8 K): 0.05055 ± 0.0028 kPa
- vapor or sublimation pressure (327.8 K): 0.06913 ± 0.0038 kPa
- vapor or sublimation pressure (332.8 K): 0.09839 ± 0.0054 kPa
- vapor or sublimation pressure (337.9 K): 0.1395 ± 0.0078 kPa
- vapor or sublimation pressure (342.9 K): 0.2097 ± 0.012 kPa
- vapor or sublimation pressure (348.1 K): 0.2794 ± 0.015 kPa
- vapor or sublimation pressure (353.2 K): 0.3777 ± 0.021 kPa
- vapor or sublimation pressure (358.3 K): 0.5243 ± 0.029 kPa
- vapor or sublimation pressure (363.3 K): 0.6922 ± 0.038 kPa

Compound: O=Cc1ccccc1 [benzaldehyde]
- vapor or sublimation pressure (278.4 K): 0.04083 ± 0.0023 kPa
- vapor or sublimation pressure (282.3 K): 0.05524 ± 0.0031 kPa
- vapor or sublimation pressure (286.3 K): 0.07697 ± 0.0042 kPa
- vapor or sublimation pressure (290.3 K): 0.09697 ± 0.0054 kPa
- vapor or sublimation pressure (294.3 K): 0.1372 ± 0.0076 kPa
- vapor or sublimation pressure (298.4 K): 0.1775 ± 0.0098 kPa
- vapor or sublimation pressure (303.2 K): 0.246 ± 0.013 kPa
- vapor or sublimation pressure (308.2 K): 0.3195 ± 0.017 kPa
- vapor or sublimation pressure (313.2 K): 0.4306 ± 0.023 kPa

Compound: O=CCc1ccccc1 [α-tolualdehyde]
- vapor or sublimation pressure (293.2 K): 0.01683 ± 0.00095 kPa
- vapor or sublimation pressure (298.1 K): 0.02456 ± 0.0014 kPa
- vapor or sublimation pressure (303.1 K): 0.03724 ± 0.0021 kPa
- vapor or sublimation pressure (308.2 K): 0.05436 ± 0.003 kPa
- vapor or sublimation pressure (313.7 K): 0.0801 ± 0.0044 kPa
- vapor or sublimation pressure (317.9 K): 0.111 ± 0.0061 kPa
- vapor or sublimation pressure (323 K): 0.15 ± 0.0083 kPa
- vapor or sublimation pressure (328.1 K): 0.2162 ± 0.012 kPa
- vapor or sublimation pressure (332.1 K): 0.2883 ± 0.016 kPa
- vapor or sublimation pressure (338 K): 0.4029 ± 0.022 kPa
- vapor or sublimation pressure (343 K): 0.5498 ± 0.03 kPa
